pIC50, pKi: −log10 of the molar value.

The source of these data is patent publication US11826430B2, “Anti-cancer nuclear hormone receptor-targeting compounds” (Nuvation Bio Inc., priority 2019, dated 2023).

One assay concerns 22RV1 cells. In words: Cell proliferation assay, CellTiter Glo. In kind it is cell-based. As to conditions: Homo sapiens, 22Rv1, 72 h; cell growth inhibition, three days of treatment. The method, then:
(§1) a. […] IC50s were determined using 8 concentrations/compound. […] Ki=IC50/(1+[L]/Kd) c.
(§2) Cells were plated at varying density in the respective growth medium in 96 well plates. 24 hr later, cells were treated, in triplicate or quadruplicate, with test articles prepared in a range of concentrations by series dilution of DMSO stock solutions in growth medium and incubated for three to seven days. The number of viable 22RV1 and HT-29 cells was measured using CellTiter Glo assay (CTG, Promega, Madison, WI) after three days of treatment. Cell viability data were plotted using GraphPad Prism (GraphPad Software, Inc., San Diego, CA). In addition, a nonlinear regression model with a sigmoidal dose response and variable slope within GraphPad Prism was used to calculate the IC50 value of individual test articles.
For orientation: In ATP-based viability assays light output follows the ATP content of the culture.

For a further assay, the system named is HT-29 cells. In words: Cell proliferation assay, CellTiter Glo. As to conditions: Homo sapiens, HT-29, 72 h; cell growth inhibition, three days of treatment. In kind it is cell-based. Here is the method:
as §1, §2

A further assay concerns the target Human recombinant PARP2 (Homo sapiens (Human), UniProt Q9UGN5). In words: RBC HotSpot PARP2 radioisotope-based filter binding assay. As to conditions: read-out: PARP2 IC50; 2.5 nM PARP2, histone H3, 10 μM 32P-NAD+.
The target in another assay is Human recombinant PARP1 (Homo sapiens (Human), UniProt P09874). In words: RBC HotSpot PARP1 radioisotope-based filter binding assay. As to conditions: read-out: PARP1 IC50; 2.5 nM PARP1, histone H4, 10 μM 32P-NAD+.
Human recombinant PARP1, sequence (P09874 whole entry, the tested form may be a part): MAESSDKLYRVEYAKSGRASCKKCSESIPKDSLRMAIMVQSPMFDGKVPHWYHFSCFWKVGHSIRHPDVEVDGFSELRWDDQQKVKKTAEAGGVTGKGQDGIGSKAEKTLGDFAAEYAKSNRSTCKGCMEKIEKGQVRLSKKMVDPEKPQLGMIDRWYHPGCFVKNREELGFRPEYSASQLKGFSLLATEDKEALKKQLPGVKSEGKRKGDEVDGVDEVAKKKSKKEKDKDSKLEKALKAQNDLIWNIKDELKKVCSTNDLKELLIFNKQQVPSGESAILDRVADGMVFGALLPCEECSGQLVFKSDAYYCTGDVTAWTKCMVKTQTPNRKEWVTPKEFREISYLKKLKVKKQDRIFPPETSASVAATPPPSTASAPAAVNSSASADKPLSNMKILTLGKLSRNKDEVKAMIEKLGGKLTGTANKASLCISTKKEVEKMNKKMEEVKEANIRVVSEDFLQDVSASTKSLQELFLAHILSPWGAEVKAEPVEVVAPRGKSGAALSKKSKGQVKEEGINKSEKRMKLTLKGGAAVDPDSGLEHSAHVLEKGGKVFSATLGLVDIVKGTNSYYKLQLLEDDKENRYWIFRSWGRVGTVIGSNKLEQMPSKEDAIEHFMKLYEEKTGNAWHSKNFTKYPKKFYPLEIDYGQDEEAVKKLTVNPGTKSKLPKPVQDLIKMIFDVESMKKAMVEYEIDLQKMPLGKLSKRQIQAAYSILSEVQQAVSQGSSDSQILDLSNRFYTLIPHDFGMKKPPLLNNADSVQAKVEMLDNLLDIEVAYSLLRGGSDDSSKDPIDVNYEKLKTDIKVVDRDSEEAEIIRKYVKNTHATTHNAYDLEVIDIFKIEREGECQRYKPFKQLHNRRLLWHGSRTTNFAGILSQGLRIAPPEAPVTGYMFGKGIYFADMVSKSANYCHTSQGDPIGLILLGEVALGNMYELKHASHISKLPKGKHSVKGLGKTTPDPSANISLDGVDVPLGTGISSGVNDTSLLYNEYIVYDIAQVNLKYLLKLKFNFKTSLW
The target in a further assay is ER Alpha-LBD (GST) (Homo sapiens (Human), UniProt P03372). Kind of assay: LanthaScreen TR-FRET ER Alpha Competitive Binding Assay. As to conditions: Fluormone ES2 Green tracer displacement; for pIC50: read-out: ERα IC50. Here is the method:
e. Additional cell proliferation assays: Other cancer cell lines are tested in a cell proliferation assay. For example, LnCaP, PC-3, MCF-7, HCC1428, BT474, HCT-116, SK-OV-3 or OVCAR3 cancer cells are tested. Cells are cultured in medium recommended by the supplier (e.g., ATCC or JCRB Cell Bank), at 37° C. in a 5% CO2 environment. For the proliferation assay, cells are plated in the growth medium in 96 well plates. Seeding density is adjusted according to the cell type. 24 hr later, cells are treated, in triplicate or quadruplicate, with test articles prepared in a range of concentrations by series dilution of DMSO stock solutions in growth medium, and typically incubated for three to seven days, with test article-containing medium replaced after three or four days. The number of viable cells is measured using CellTiter Glo assay (CTG, Promega, Madison, WI) or similar. Cell viability data are plotted using GraphPad Prism (GraphPad Software, Inc., San Diego, CA). In addition, a nonlinear regression model with a sigmoidal dose response and variable slope within GraphPad Prism is used to calculate the IC50 value of individual test articles. Similarly, HEK-293 and HeLa calls can also be tested by methods known in the art. f. Nuclear translocation: LNCaP cells are plated on coverslips in 24 well plates in growth medium. Twenty-four hours after plating, medium is changed to RPMI+1% csFBS and the cells are maintained in this medium for two days. Medium is replaced again and the cells are treated. Cells are fixed 4 hours after treatment and the AR immunostained using AR N20 antibody (Santa Cruz Biotechnology, Santa Cruz, CA). Nucleus is stained with DAPI. Cells are imaged with a confocal microscope. g. ER binding assay: ERα binding was assessed by the LanthaScreen® TR-FRET ER Alpha Competitive Binding Assay at Thermo Fisher. In this assay, a terbium-labeled anti-GST antibody was used to indirectly label GST-tagged ER Alpha-ligand binding domain (LBD) by binding to its GST tag. Competitive binding to the ER Alpha-LBD (GST) was detected by a test compound's ability to displace a fluorescent ligand (Fluormone™ ES2 Green tracer) from the ER Alpha-LBD (GST), which results in a loss of FRET signal between the Tb-anti-GST antibody and the tracer. When running the assay, Fluormone™ ES2 Green tracer was added to ligand test compounds or solvent controls followed by addition of a mixture of the ER Alpha-LBD (GST) and terbium anti-GST antibody. After an incubation period at room temperature, the TR-FRET ratio of 520:495 emissions were calculated and used to determine the IC50 from a dose response curve of the compound. ER and PR functional assays: COS cells are transfected with 25 ng rat progesterone receptor (PR) and 250 ng GRE-LUC or 50 ng human estrogen receptor a (ER) and 250 ng ERE-LUC. Cells are also transfected with 10 ng CMV-renilla LUC in OptiMEM medium using lipofectamine transfection reagent. Twenty-four hours after transfection medium is changed to DME+5% csFBS w/o and treated with compounds in the presence of 0.1 nM progesterone for PR and estradiol for ER. Twenty four hours after treatment, cells are harvested and luciferase assay is performed using dual luciferase assay kit. The firefly values are normalized to renilla luciferase values and represented as a ratio. i. Evaluation of test compound in mouse xenograft model: To examine the in vivo antitumor activity of test compound, tumor growth experiments are performed in a cell line xenograft model. Male NOD SCID Gamma (NSG) mice are housed as five animals per cage and are allowed free access to water and commercial rodent chow. 22RV1 cells (grown in RPMI+10% FBS) mixed with 50% matrigel basement membrane are implanted subcutaneously in castrated mice. Alternatively, an antiandrogen resistant cell line other than 22RV1, such as MR49F or VCaP, is used. Once the tumors reach 200-500 mm^3, the animals are randomized and treated intraperitoneally with vehicle (DMSO:PEG-300:corn oil 10:30:60 ratio) or test compound. […]

Human recombinant PARP2, sequence (Q9UGN5 whole entry): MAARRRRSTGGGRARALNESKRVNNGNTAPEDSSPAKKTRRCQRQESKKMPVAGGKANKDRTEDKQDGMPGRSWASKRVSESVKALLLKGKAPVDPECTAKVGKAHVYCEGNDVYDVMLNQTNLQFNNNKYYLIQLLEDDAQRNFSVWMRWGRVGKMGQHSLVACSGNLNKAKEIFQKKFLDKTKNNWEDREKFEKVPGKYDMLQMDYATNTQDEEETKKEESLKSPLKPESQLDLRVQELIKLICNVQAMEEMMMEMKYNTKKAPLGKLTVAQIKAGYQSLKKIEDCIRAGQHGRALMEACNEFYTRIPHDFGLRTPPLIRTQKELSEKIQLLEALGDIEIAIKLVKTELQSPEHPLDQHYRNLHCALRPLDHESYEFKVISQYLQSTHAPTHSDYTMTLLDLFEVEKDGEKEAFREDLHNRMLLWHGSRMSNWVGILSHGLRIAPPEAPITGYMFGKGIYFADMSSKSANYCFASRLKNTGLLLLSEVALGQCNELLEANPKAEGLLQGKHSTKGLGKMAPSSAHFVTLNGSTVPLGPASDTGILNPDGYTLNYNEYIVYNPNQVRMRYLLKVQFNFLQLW
ER Alpha-LBD (GST), sequence (P03372 311-547): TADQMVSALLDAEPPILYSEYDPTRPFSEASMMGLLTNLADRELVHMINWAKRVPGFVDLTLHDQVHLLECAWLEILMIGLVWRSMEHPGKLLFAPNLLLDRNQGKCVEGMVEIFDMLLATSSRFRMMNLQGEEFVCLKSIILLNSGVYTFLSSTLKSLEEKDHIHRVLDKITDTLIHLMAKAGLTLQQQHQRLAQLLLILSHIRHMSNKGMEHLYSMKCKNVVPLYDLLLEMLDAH
Experimental for Human recombinant PARP1: (§3) RBC HotSpot Poly(ADP-ribose) Polymerases 1 (PARP1) and Poly(ADP-ribose) Polymerases 2 (PARP2) Assays: The assay was conducted at Reaction Biology Corporation (RBC; Malvern, PA). The assay principle is radioisotope-based filter binding assay where incorporation of radioisotope-labeled NAD^+ into the substrate captured on filter is detected after washout free NAD^+. Data were analyzed using Excel and GraphPad Prism software for IC50 curve fits. Each assay was conducted with PJ34 as a positive control. PARP1 assay: Human recombinant PARP1 at a final concentration of 2.5 nM was combined with histone H4 (20 μM) and test articles at various concentrations in reaction buffer (50 mM Tris-HCL, pH 8.0, 50 mM NaCl, 10 mM MgCl2, 1 mM DTT, 1% DMSO, and 20 μg/mL activated DNA). The solution was inoculated for 20 min at room temperature and the reaction initiated by adding [adenylate-^32P]-Nicotinamide Adenine Dinucleotide, ^32P-NAD^+ at a final concentration of 10 μM. After incubation for 2 hrs at room temperature, the reaction mixture was filtered and washed with 0.75% phosphoric acid for radioactivity detection. • ii. PARP2 assay: Human recombinant PARP2 at a final concentration of 2.5 nM was combined with histone H3 (20 μM) and test articles at various concentrations in reaction buffer (50 mM Tris-HCL, pH 8.0, 50 mM NaCl, 10 mM MgCl2, 1 mM DTT, 1% DMSO, and 20 μg/mL activated DNA). The solution was inoculated for 20 min at room temperature and the reaction was initiated by adding [adenylate-^32P]-Nicotinamide Adenine Dinucleotide, ^32P-NAD^+ at a final concentration of 10 μM. After incubation for 2 hrs at room temperature, the reaction mixture was filtered and washed with 0.75% phosphoric acid for radioactivity detection. b. AR binding assay: AR in LNCaP cytosol was used for determining the binding affinity of test articles and the reference compound—progesterone (Sigma, Cat: E2785, St. Louis, MO). IC50s were determined using 8 concentrations/compound. Cytosol was plated at 200 μg/well (100 μL) into a 96-well conical polypropylene plate (Agilent, Cat: 5042-1385, Santa Clara, CA) and mixed with 3 μL of test compound. After adding 100 μL of ^3H-methyltrienolone (PerkinElmer, Cat: NET590250UC, San Jose, CA), the plate was sealed and shaken at 300 rpm at 4° C. for 24 hours. Post incubation, 100 μL of radioligand adsorption buffer containing 10 mM Tris-HCl, pH 7.4; 1.5 mM EDTA; 1 mM DTT; 0.25% charcoal; 0.0025% dextran was added to individual well. Plate was shaken for 15 min at 4° C. followed by centrifugation at 3000 rpm for 30 min at 4° C. 150 μL of supernatant was transferred into scint-tube (PerkinElmer, Cat: 6000192) and mixed with 2 mL of Ultima Gold Cocktail (PerkinElmer, Cat: 6013329). Radioactivity was counted using a TriCarb 2910 TR scintillation counter (PerkinElmer). Inhibition of the radioactivity by test articles were calculated using the equation below: % Inhibition=(1−(Assay well-Average_LC)/(Average_HC-Average_LC))×100%. IC50 values were calculated and graphed using the model “log(inhibitor) vs. response—Variable slope” included in GraphPad Prism 5 (San Diego, CA). […] Ki=IC50/(1+[L]/Kd) c.
Experimental for Human recombinant PARP2: as §3

The term pIC50 denotes the negative decadic logarithm of the IC50, by convention in mol/L. As to `Cn1ncnc1[C@@H]1c2n[nH]c(=O)c3cc(F)cc(c23)N[C@H]1c1ccc(N2C(=S)N(c3ccc(C#N)c(C(F)(F)F)c3)C(=O)C2(C)C)cc1` [Compound 1.2b, 4-(3-(4-((8R,9S)-5-fluoro-9-(1-methyl-1H-1,2,4-triazol-5-yl)-3-oxo-3,7,8,9-tetrahydro-2H-pyrido[4,3,2-de]phthalazin-8-yl)phenyl)-4,4-dimethyl-5-oxo-2-thioxoimidazolidin-1-yl)-2-(trifluoromethyl)benzonitrile], the pIC50 was less than 5.00 with 22RV1 cells, less than 5.00 in the assay on HT-29 cells and 7.70 on Human recombinant PARP2.
As for `C[C@H]1Cc2c([nH]c3ccccc23)[C@H](c2c(F)cc(OCCN3CCN(C(=O)c4cc(Cc5n[nH]c(=O)c6ccccc56)ccc4F)CC3)cc2F)N1CC(C)(C)F` (stereo in doubt) [Compound 2.51, 4-(3-(4-(2-(3,5-difluoro-4-((1S,3S)-2-(2-fluoro-2-methylpropyl)-3-methyl-2,3,4,9-tetrahydro-1H-pyrido[3,4-b]indol-1-yl)phenoxy)ethyl)piperazine-1-carbonyl)-4-fluorobenzyl)phthalazin-1(2H)-one], the pIC50 at Human recombinant PARP1 is 7.55; on Human recombinant PARP2, 8.40; on ER Alpha-LBD (GST), 7.36.
Usually pKi stands for −log10 of the Ki, conventionally taken in molar units. Turning to `CC/C(=C(/c1ccc(OCCCOCCN2CCN(C(=O)c3cc(Cc4n[nH]c(=O)c5ccccc45)ccc3F)CC2)cc1)c1ccc2[nH]ncc2c1)c1ccc(Cl)cc1F` [Compound 2.54, (E)-4-(3-(4-(2-(3-(4-(2-(4-chloro-2-fluorophenyl)-1-(1H-indazol-5-yl)but-1-enyl)phenoxy)propoxy)ethyl)piperazine-1-carbonyl)-4-fluorobenzyl)phthalazin-1(2H)-one], the negative logarithm of the IC50 (pIC50) at Human recombinant PARP1 is 7.40; on Human recombinant PARP2, 8.30; on ER Alpha-LBD (GST) it was 7.19. The negative-log Ki (pKi) at ER Alpha-LBD (GST) (read-out: ERα Ki) was 7.46.
Regarding `CC/C(=C(/c1ccc(OCCCCCCN2CCN(C(=O)c3cc(Cc4n[nH]c(=O)c5ccccc45)ccc3F)CC2)cc1)c1ccc2[nH]ncc2c1)c1ccc(Cl)cc1F` [Compound 2.52, (E)-4-(3-(4-(6-(4-(2-(4-chloro-2-fluorophenyl)-1-(1H-indazol-5-yl)but-1-enyl)phenoxy)hexyl)piperazine-1-carbonyl)-4-fluorobenzyl)phthalazin-1(2H)-one], the figures for the pIC50 at Human recombinant PARP1, at Human recombinant PARP2 and at ER Alpha-LBD (GST) were 6.73, 7.54 and 8.28, respectively.
In the case of `CC1(C)C(=O)N(c2ccc(C#N)c(C(F)(F)F)c2)C(=S)N1C1CCN(C(=O)c2cc(Cc3n[nH]c(=O)c4ccccc34)ccc2F)CC1` [Compound 1.3, 4-(3-(1-(2-fluoro-5-((4-oxo-3,4-dihydrophthalazin-1-yl)methyl)benzoyl)piperidin-4-yl)-4,4-dimethyl-5-oxo-2-thioxoimidazolidin-1-yl)-2-(trifluoromethyl)benzonitrile], the pIC50 at Human recombinant PARP1 was 8.52; at Human recombinant PARP2 it was 9.22.
`C[C@@H]1Cc2c([nH]c3ccccc23)[C@@H](c2c(F)cc(OCCCCCC(=O)N3CCN(C(=O)c4cc(Cc5n[nH]c(=O)c6ccccc56)ccc4F)CC3)cc2F)N1CC(C)(C)F` [Compound 2.50, 4-(3-(4-(6-(3,5-difluoro-4-((1R,3R)-2-(2-fluoro-2-methylpropyl)-3-methyl-2,3,4,9-tetrahydro-1H-pyrido[3,4-b]indol-1-yl)phenoxy)hexanoyl)piperazine-1-carbonyl)-4-fluorobenzyl)phthalazin-1(2H)-one]: the results for the pIC50 at Human recombinant PARP1, at Human recombinant PARP2 and on ER Alpha-LBD (GST) were 7.68, 8.52 and 8.24, respectively.
The corresponding values for `CC/C(=C(/c1ccc(OCCCOCC(=O)N2CCN(C(=O)c3cc(Cc4n[nH]c(=O)c5ccccc45)ccc3F)CC2)cc1)c1ccc2[nH]ncc2c1)c1ccc(Cl)cc1F` [Compound 2.53, (E)-4-(3-(4-(2-(3-(4-(2-(4-chloro-2-fluorophenyl)-1-(1H-indazol-5-yl)but-1-enyl)phenoxy)propoxy)acetyl)piperazine-1-carbonyl)-4-fluorobenzyl)phthalazin-1(2H)-one] are 7.02, 8.22 and 8.47.
Regarding `Cn1ncnc1[C@H]1c2n[nH]c(=O)c3cc(F)cc(c23)N[C@@H]1c1ccc(OC[C@](C)(O)C(=O)Nc2ccc(C#N)c(C(F)(F)F)c2)cc1` [Compound 1.1a, (S)—N-(4-cyano-3-(trifluoromethyl)phenyl)-3-(4-((8S,9R)-5-fluoro-9-(1-methyl-1H-1,2,4-triazol-5-yl)-3-oxo-3,7,8,9-tetrahydro-2H-pyrido[4,3,2-de]phthalazin-8-yl)phenoxy)-2-hydroxy-2-methylpropanamide], the pIC50 on Human recombinant PARP1 was less than 6.00; in the assay with 22RV1 cells, less than 5.00; in the assay with HT-29 cells it was less than 5.00; at Human recombinant PARP2 it was less than 6.00.
Regarding `Cn1ncnc1[C@@H]1c2n[nH]c(=O)c3cc(F)cc(c23)N[C@H]1c1ccc(OC[C@](C)(O)C(=O)Nc2ccc(C#N)c(C(F)(F)F)c2)cc1` [Compound 1.1b, (S)—N-(4-cyano-3-(trifluoromethyl)phenyl)-3-(4-((8R,9S)-5-fluoro-9-(1-methyl-1H-1,2,4-triazol-5-yl)-3-oxo-3,7,8,9-tetrahydro-2H-pyrido[4,3,2-de]phthalazin-8-yl)phenoxy)-2-hydroxy-2-methylpropanamide], the pIC50 on Human recombinant PARP1 is 7.22; in the assay on 22RV1 cells, less than 5.00; in the assay with HT-29 cells, less than 5.00; at Human recombinant PARP2, 7.52.
Take `CC/C(=C(/c1ccc(OCCCCCC(=O)N2CCN(C(=O)c3cc(Cc4n[nH]c(=O)c5ccccc45)ccc3F)CC2)cc1)c1ccc2[nH]ncc2c1)c1ccc(Cl)cc1F` [Compound 2.49, (E)-4-(3-(4-(6-(4-(2-(4-chloro-2-fluorophenyl)-1-(1H-indazol-5-yl)but-1-en-1-yl)phenoxy)hexanoyl)piperazine-1-carbonyl)-4-fluorobenzyl)phthalazin-1(2H)-one]: the pIC50 on Human recombinant PARP1 was 6.69; on Human recombinant PARP2, 8.05; at ER Alpha-LBD (GST), 8.36.
